We go through one compound from patent publication US12077503B2, “Substituted cyclic amides and their use as herbicides” (FMC CORPORATION, priority 2015, dated 2024).

Holding throughout (type): in vivo
The subject of assay [1] is Kochia (Kochia scoparia). The assay is described as follows: Test A preemergence. The settings on record: Bassia scoparia, pre-emergence, 240 h, preemergence, 0 to 100 scale where 0 is no effect and 100 is complete control, read-out: Kochia plant response rating. The gist of the method: (§1)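 Compounds were formulated in a non-phytotoxic solvent mixture with surfactant and applied as a preemergence directed soil spray after seeding, or sprayed postemergence over plants 2 to 10 cm tall at the one- to two-leaf stage. Evaluation after about 10 d compared treated with untreated controls, using a scale from 0 (no effect) to 100 (complete control).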

In assay [2] the test system is barnyardgrass (Echinochloa crus-galli). The assay is described as follows: Test A preemergence. Particulars: Echinochloa crus-galli, pre-emergence, 240 h, preemergence, 0 to 100 scale where 0 is no effect and 100 is complete control, read-out: Barnyardgrass plant response rating. The gist of the method:
as §1

The subject of assay [3] is giant foxtail (Setaria faberii). The assay is described as follows: Test A preemergence. Particulars: Setaria faberi, pre-emergence, 240 h, preemergence, 0 to 100 scale where 0 is no effect and 100 is complete control, read-out: Foxtail, Giant plant response rating. The gist of the method:
as §1

The test system of assay [4] is pigweed (Amaranthus retroflexus). The assay can be described thus: Test A preemergence. The settings on record: Amaranthus retroflexus, pre-emergence, 240 h, preemergence, 0 to 100 scale where 0 is no effect and 100 is complete control, read-out: Pigweed plant response rating.
Assay [5] relates to ragweed (common ragweed, Ambrosia elatior). The assay is described as follows: Test A preemergence. The settings on record: Ambrosia artemisiifolia, pre-emergence, 240 h, preemergence, 0 to 100 scale where 0 is no effect and 100 is complete control, read-out: Ragweed plant response rating. The gist of the method: as §1
Assay [6] deals with ryegrass, Italian (Italian ryegrass, Lolium multiflorum). The assay can be described thus: Test A preemergence. Particulars: Lolium multiflorum, pre-emergence, 240 h, preemergence, 0 to 100 scale where 0 is no effect and 100 is complete control, read-out: Ryegrass, Italian plant response rating. The gist of the method: as §1
For assay [7], the system named is barnyardgrass (Echinochloa crus-galli). The assay can be described thus: Test A postemergence. Particulars: Echinochloa crus-galli, post-emergence, 240 h. The gist of the method: as §1
The subject of assay [8] is giant foxtail (Setaria faberii). The assay can be described thus: Test A postemergence. The settings on record: Setaria faberi, post-emergence, 240 h. The gist of the method: as §1
Assay [9] relates to pigweed (Amaranthus retroflexus). The assay can be described thus: Test A postemergence. Particulars: Amaranthus retroflexus, post-emergence, 240 h. The gist of the method: as §1
The subject of assay [10] is ryegrass, Italian (Italian ryegrass, Lolium multiflorum). The assay is described as follows: Test A postemergence. The settings on record: Lolium multiflorum, post-emergence, 240 h. The procedure, abridged: as §1
For assay [11], the system named is barnyardgrass (Echinochloa crus-galli). The assay can be described thus: Test B flooded paddy test. The settings on record: Echinochloa crus-galli, 250 g ai/ha, Flood; 0 to 100 scale where 0 is no effect and 100 is complete control; read-out: Barnyardgrass plant response rating. The gist of the method:
(§2)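 Greenhouse paddy pots with 2-leaf stage plants received compound by direct addition to floodwater 3 cm deep, kept at that level. Scored visually at 13–15 d versus controls (0 no effect; 100 complete control).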

Assay [12] deals with ducksalad (Heteranthera limosa). The assay is described as follows: Test B flooded paddy test. The settings on record: Heteranthera limosa, 250 g ai/ha, Flood; 0 to 100 scale where 0 is no effect and 100 is complete control; read-out: Ducksalad plant response rating. The gist of the method: as §2
Assay [13] relates to rice (Oryra sativa). The assay is described as follows: Test B flooded paddy test. Particulars: Oryza sativa, 250 g ai/ha, Flood; 0 to 100 scale where 0 is no effect and 100 is complete control; read-out: Rice plant response rating. The procedure, abridged: as §2
Assay [14] concerns sedge, umbrella (small-flower umbrella sedge, Cyperus difformis). The assay is described as follows: Test B flooded paddy test. The settings on record: Cyperus difformis, 250 g ai/ha, Flood; 0 to 100 scale where 0 is no effect and 100 is complete control; read-out: Sedge, Umbrella plant response rating. The gist of the method: as §2
Setting [15] is: 125 g ai/ha, visual injury rating, approximately 10 d.

Structures are written as SMILES.

Take `CN1C[C@H](c2ccc(F)c(C#N)c2)[C@@H](C(=O)Nc2ccccc2F)C1=O` [Compound 1254]: the pest or weed control at 125 g/ha came out at 20% in assay [1] (setting [15]); 100% in assay [2] (setting [15]); 90% in [3] (setting [15]); 20% in [4] (setting [15]); 0% in assay [5] (setting [15]); 0% in [6] (setting [15]). The pest or weed control at 125 g/ha in [7] (125 g ai/ha, postemergence, visual injury vs untreated controls after approx. 10 d, 0 = no effect, 100 = complete control, read-out: Barnyardgrass plant response rating (0 to 100 scale)) was 80%; in assay [8] (125 g ai/ha, postemergence, visual injury vs untreated controls after approx. 10 d, 0 = no effect, 100 = complete control, read-out: Foxtail, Giant plant response rating (0 to 100 scale)), 80%; in assay [9] (125 g ai/ha, postemergence, visual injury vs untreated controls after approx. 10 d, 0 = no effect, 100 = complete control, read-out: Pigweed plant response rating (0 to 100 scale)), 0%; in [10] (125 g ai/ha, postemergence, visual injury vs untreated controls after approx. 10 d, 0 = no effect, 100 = complete control, read-out: Ryegrass, Italian plant response rating (0 to 100 scale)), 0%. Moreover, the pest or weed control at 500 g/ha turned out to be 70% in assay [1] (500 g ai/ha); 100% in [2] (500 g ai/ha); 100% in assay [3] (500 g ai/ha); 70% in assay [4] (500 g ai/ha); 30% in assay [5] (500 g ai/ha); 40% in assay [6] (500 g ai/ha). Besides, the pest or weed control at 500 g/ha turned out to be 90% in assay [7] (Postemergence, 500 g ai/ha, visual injury, 0 to 100 scale (0 no effect, 100 complete control), approx. 10 d, read-out: Plant response rating, Barnyardgrass); 80% in assay [8] (Postemergence, 500 g ai/ha, visual injury, 0 to 100 scale (0 no effect, 100 complete control), approx. 10 d, read-out: Plant response rating, Foxtail, Giant); 20% in [9] (Postemergence, 500 g ai/ha, visual injury, 0 to 100 scale (0 no effect, 100 complete control), approx. 10 d, read-out: Plant response rating, Pigweed); 70% in assay [10] (Postemergence, 500 g ai/ha, visual injury, 0 to 100 scale (0 no effect, 100 complete control), approx. 10 d, read-out: Plant response rating, Ryegrass, Italian). For the same compound, the pest or weed control at 250 g/ha in assay [11] came out at 60%; in [12] it was 100%; in assay [13], 0%; in assay [14] it was 0%.
